Reference: US9179694B2, “Method and composition for enhancing milk production and milk component concentrations” (PURINA ANIMAL NUTRITION LLC, priority 2003, dated 2015)
Marks after values point to notes of the source that are not given here.

Assay: Fat content of produced milk in sorbitol feeding trials
Format: in vivo, Holstein cows
Settings: for Fat in Produced Milk: Pre-Partum Trial #1 (75/0/0 g/day in wk −3..−1/+1..+4/+5..+8)
Procedure: To determine the weight percent total fat, wet basis, in a sample, the actual weight of fat in the sample is determined in accordance with Method #974.09 (33.7.18) of Official Methods of Analysis, Association of Official Analytical Chemists (AOAC) (16th Ed., 1995). The weight percent total fat, wet basis, is then calculated by dividing the actual weight of fat in the sample by the actual weight of the sample. Each cow of each of the six different trials (Control Trial #1, Control Trial #2, Pre-Partum Trial #1, Pre-Partum Trial #2, Pre/Post Trial #1, and Pre/Post Trial #2) was milked three times daily and the weight of produced milk by each cow was recorded at each milking. The milk from each cow was sampled once per week (⅓ of the sample volume from each of the three milkings occurring on the weekly milk sampling day) and was analyzed for true protein, total fat, lactose, and total solids, as detailed in the property determination and characterization techniques presented above. Additionally, samples of blood were periodically obtained from each cow during the four trials (Control Trial 2, Pre-Partum Trial #2, Pre/Post Trial #1, and Pre/Post Trial #2) encompassed in Example Two and were analyzed for non-esterified fatty acid (NEFA) content as detailed in the property determination and characterization techniques presented above. No NEFA analysis was conducted on the cows employed in Control Trial #1 or Pre-Partum Trial #1 that are the subject of Example One. Example One includes Control Trial #1 and Pre-Partum Trial #1. Both primiparious cows and multiparious cows were included in Control Trial #1 and Pre-Partum Trial #1. Five primiparious cows and fifteen multiparious cows were included in Control Trial #1; likewise, five primiparious cows and fifteen multiparious cows were included in Pre-Partum Trial #1. All cows included in Control Trial #1 and Pre-Partum Trial #1 were Holsteins. Example Two includes Control Trial #2, Pre-Partum Trial #2, Pre/Post Trial #1, and Pre/Post Trial #2. Only multiparious, Holstein cows were included in Control Trial #2, […], Pre/Post Trial #1, and Pre/Post Trial #2. Eighteen multiparious cows were included in both Control Trial #2 and Pre-Partum Trial #2, while sixteen multiparious cows were included in Pre/Post Trial #1 and seventeen multiparious cows were included in Pre/Post Trial #2.

OC[C@@H](O)[C@@H](O)[C@H](O)[C@@H](O)CO [sorbitol]
Fat in Produced Milk (multiparious cows, weeks +1 through +8): 3.50 wt %
Fat in Produced Milk (primiparious cows, weeks +1 through +8): 4.2 wt %
increase in fat concentration in the produced milk (Pre-Partum Trial #1 (75 g/day wk −3..−1 only) versus Control Trial #1, primiparious cows, weeks +1 through +8): 11.7%
Fat Content of Produced Milk (Pre-Partum Trial #2 (75/0/100 g/day in wk −3..−1/+1..+4/+5..+8), multiparious cows, week +1): 4.91^a weight %
Fat Content of Produced Milk (Pre-Partum Trial #2 (75/0/100 g/day in wk −3..−1/+1..+4/+5..+8), multiparious cows, week +2): 4.50 weight %
Fat Content of Produced Milk (Pre-Partum Trial #2 (75/0/100 g/day in wk −3..−1/+1..+4/+5..+8), multiparious cows, week +3): 4.09 weight %
Fat Content of Produced Milk (Pre-Partum Trial #2 (75/0/100 g/day in wk −3..−1/+1..+4/+5..+8), multiparious cows, week +4): 3.41^a weight %
Fat Content of Produced Milk (Pre-Partum Trial #2 (75/0/100 g/day in wk −3..−1/+1..+4/+5..+8), multiparious cows, week +5): 3.35 weight %
Fat Content of Produced Milk (Pre-Partum Trial #2 (75/0/100 g/day in wk −3..−1/+1..+4/+5..+8), multiparious cows, week +6): 3.17^a weight %
Fat Content of Produced Milk (Pre-Partum Trial #2 (75/0/100 g/day in wk −3..−1/+1..+4/+5..+8), multiparious cows, week +7): 3.29 weight %
Fat Content of Produced Milk (Pre-Partum Trial #2 (75/0/100 g/day in wk −3..−1/+1..+4/+5..+8), multiparious cows, week +8): 3.34^ab weight %
Fat Content of Produced Milk (Pre-Partum Trial #2 (75/0/100 g/day in wk −3..−1/+1..+4/+5..+8), multiparious cows, weeks +1 through +4): 4.23^a weight %
Fat Content of Produced Milk (Pre-Partum Trial #2 (75/0/100 g/day in wk −3..−1/+1..+4/+5..+8), multiparious cows, weeks +1 through +8): 3.75^a weight %
Fat Content of Produced Milk (Pre-Partum Trial #2 (75/0/100 g/day in wk −3..−1/+1..+4/+5..+8), multiparious cows, weeks +5 through +8): 3.27^ab weight %
Fat Content of Produced Milk (Pre/Post Trial #1 (150/125/100 g/day in wk −3..−1/+1..+4/+5..+8), multiparious cows, week +1): 5.49^ab weight %
Fat Content of Produced Milk (Pre/Post Trial #1 (150/125/100 g/day in wk −3..−1/+1..+4/+5..+8), multiparious cows, week +1, two-trial comparison with Control Trial #2 (Table 23)): 5.49 weight %
Fat Content of Produced Milk (Pre/Post Trial #1 (150/125/100 g/day in wk −3..−1/+1..+4/+5..+8), multiparious cows, week +2): 4.41 weight %
Fat Content of Produced Milk (Pre/Post Trial #1 (150/125/100 g/day in wk −3..−1/+1..+4/+5..+8), multiparious cows, week +2, two-trial comparison with Control Trial #2 (Table 23)): 4.41 weight %
Fat Content of Produced Milk (Pre/Post Trial #1 (150/125/100 g/day in wk −3..−1/+1..+4/+5..+8), multiparious cows, week +3): 4.22 weight %
Fat Content of Produced Milk (Pre/Post Trial #1 (150/125/100 g/day in wk −3..−1/+1..+4/+5..+8), multiparious cows, week +3, two-trial comparison with Control Trial #2 (Table 23)): 4.22 weight %
Fat Content of Produced Milk (Pre/Post Trial #1 (150/125/100 g/day in wk −3..−1/+1..+4/+5..+8), multiparious cows, week +4): 4.01^b weight %
Fat Content of Produced Milk (Pre/Post Trial #1 (150/125/100 g/day in wk −3..−1/+1..+4/+5..+8), multiparious cows, week +4, two-trial comparison with Control Trial #2 (Table 23)): 4.01 weight %
Fat Content of Produced Milk (Pre/Post Trial #1 (150/125/100 g/day in wk −3..−1/+1..+4/+5..+8), multiparious cows, week +5): 3.71 weight %
Fat Content of Produced Milk (Pre/Post Trial #1 (150/125/100 g/day in wk −3..−1/+1..+4/+5..+8), multiparious cows, week +5, two-trial comparison with Control Trial #2 (Table 23)): 3.71 weight %
Fat Content of Produced Milk (Pre/Post Trial #1 (150/125/100 g/day in wk −3..−1/+1..+4/+5..+8), multiparious cows, week +6): 3.69^b weight %
Fat Content of Produced Milk (Pre/Post Trial #1 (150/125/100 g/day in wk −3..−1/+1..+4/+5..+8), multiparious cows, week +6, two-trial comparison with Control Trial #2 (Table 23)): 3.69 weight %
Fat Content of Produced Milk (Pre/Post Trial #1 (150/125/100 g/day in wk −3..−1/+1..+4/+5..+8), multiparious cows, week +7): 3.45 weight %
Fat Content of Produced Milk (Pre/Post Trial #1 (150/125/100 g/day in wk −3..−1/+1..+4/+5..+8), multiparious cows, week +7, two-trial comparison with Control Trial #2 (Table 23)): 3.45 weight %
Fat Content of Produced Milk (Pre/Post Trial #1 (150/125/100 g/day in wk −3..−1/+1..+4/+5..+8), multiparious cows, week +8): 3.68^b weight %
Fat Content of Produced Milk (Pre/Post Trial #1 (150/125/100 g/day in wk −3..−1/+1..+4/+5..+8), multiparious cows, week +8, two-trial comparison with Control Trial #2 (Table 23)): 3.68 weight %
Fat Content of Produced Milk (Pre/Post Trial #1 (150/125/100 g/day in wk −3..−1/+1..+4/+5..+8), multiparious cows, weeks +1 through +4): 4.53^ab weight %
Fat Content of Produced Milk (Pre/Post Trial #1 (150/125/100 g/day in wk −3..−1/+1..+4/+5..+8), multiparious cows, weeks +1 through +4, two-trial comparison with Control Trial #2 (Table 23)): 4.53 weight %
Fat Content of Produced Milk (Pre/Post Trial #1 (150/125/100 g/day in wk −3..−1/+1..+4/+5..+8), multiparious cows, weeks +1 through +8): 4.09^ab weight %
Fat Content of Produced Milk (Pre/Post Trial #1 (150/125/100 g/day in wk −3..−1/+1..+4/+5..+8), multiparious cows, weeks +1 through +8, two-trial comparison with Control Trial #2 (Table 23)): 4.09 weight %
Fat Content of Produced Milk (Pre/Post Trial #1 (150/125/100 g/day in wk −3..−1/+1..+4/+5..+8), multiparious cows, weeks +5 through +8): 3.63^b weight %
Fat Content of Produced Milk (Pre/Post Trial #1 (150/125/100 g/day in wk −3..−1/+1..+4/+5..+8), multiparious cows, weeks +5 through +8, two-trial comparison with Control Trial #2 (Table 23)): 3.63 weight %
increase in fat concentration in milk (Pre/Post Trial #1 (150/125/100 g/day) versus Control Trial #2, multiparious cows, weeks +1 through +8 (Table 23)): 7.3%
increase in fat concentration in milk (Pre/Post Trial #1 (150/125/100 g/day) versus Control Trial #2, multiparious cows, weeks +5 through +8 (Table 23)): 13.8%
greater fat concentration in milk (Pre/Post Trial #1 (150/125/100 g/day) versus Pre/Post Trial #2 (75/75/100 g/day), multiparious cows, week +8): 17.2%
Fat Content of Produced Milk (Pre/Post Trial #2 (75/75/100 g/day in wk −3..−1/+1..+4/+5..+8), multiparious cows, week +1): 6.23^b weight %
Fat Content of Produced Milk (Pre/Post Trial #2 (75/75/100 g/day in wk −3..−1/+1..+4/+5..+8), multiparious cows, week +2): 4.73 weight %
Fat Content of Produced Milk (Pre/Post Trial #2 (75/75/100 g/day in wk −3..−1/+1..+4/+5..+8), multiparious cows, week +3): 4.21 weight %
Fat Content of Produced Milk (Pre/Post Trial #2 (75/75/100 g/day in wk −3..−1/+1..+4/+5..+8), multiparious cows, week +4): 3.87^b weight %
Fat Content of Produced Milk (Pre/Post Trial #2 (75/75/100 g/day in wk −3..−1/+1..+4/+5..+8), multiparious cows, week +5): 3.89 weight %
Fat Content of Produced Milk (Pre/Post Trial #2 (75/75/100 g/day in wk −3..−1/+1..+4/+5..+8), multiparious cows, week +6): 3.48^ab weight %
Fat Content of Produced Milk (Pre/Post Trial #2 (75/75/100 g/day in wk −3..−1/+1..+4/+5..+8), multiparious cows, week +7): 3.47 weight %
Fat Content of Produced Milk (Pre/Post Trial #2 (75/75/100 g/day in wk −3..−1/+1..+4/+5..+8), multiparious cows, week +8): 3.14^a weight %
Fat Content of Produced Milk (Pre/Post Trial #2 (75/75/100 g/day in wk −3..−1/+1..+4/+5..+8), multiparious cows, weeks +1 through +4): 4.79^b weight %
Fat Content of Produced Milk (Pre/Post Trial #2 (75/75/100 g/day in wk −3..−1/+1..+4/+5..+8), multiparious cows, weeks +1 through +8): 4.13^b weight %
Fat Content of Produced Milk (Pre/Post Trial #2 (75/75/100 g/day in wk −3..−1/+1..+4/+5..+8), multiparious cows, weeks +5 through +8): 3.43^ab weight %
greater fat concentration in milk (Pre/Post Trial #2 (75/75/100 g/day) versus Pre-Partum Trial #2 (75/0/100 g/day), multiparious cows, weeks +1 through +4): 13.24%
greater fat concentration in milk (Pre/Post Trial #2 (75/75/100 g/day) versus Pre-Partum Trial #2 (75/0/100 g/day), multiparious cows, weeks +1 through +8): 10.1%
increase in fat concentration in milk (average of means of Pre-Partum Trial #2, Pre/Post Trial #1 and Pre/Post Trial #2 versus Control Trial #2, multiparious cows, weeks +1 through +8): 4.7%
increase in fat concentration in milk (average of means of Pre-Partum Trial #2, Pre/Post Trial #1 and Pre/Post Trial #2 versus Control Trial #2, multiparious cows, weeks +5 through +8): 7.9%
